The term pIC50 denotes the negative decadic logarithm of the IC50, by convention in mol/L. The half-life is the time in which the quantity being followed falls by half. Read a low half-life as fast loss.

One data set deals with T1, Estrogen receptor (Homo sapiens, UniProt P03372).
T1 sequence (P03372 whole entry): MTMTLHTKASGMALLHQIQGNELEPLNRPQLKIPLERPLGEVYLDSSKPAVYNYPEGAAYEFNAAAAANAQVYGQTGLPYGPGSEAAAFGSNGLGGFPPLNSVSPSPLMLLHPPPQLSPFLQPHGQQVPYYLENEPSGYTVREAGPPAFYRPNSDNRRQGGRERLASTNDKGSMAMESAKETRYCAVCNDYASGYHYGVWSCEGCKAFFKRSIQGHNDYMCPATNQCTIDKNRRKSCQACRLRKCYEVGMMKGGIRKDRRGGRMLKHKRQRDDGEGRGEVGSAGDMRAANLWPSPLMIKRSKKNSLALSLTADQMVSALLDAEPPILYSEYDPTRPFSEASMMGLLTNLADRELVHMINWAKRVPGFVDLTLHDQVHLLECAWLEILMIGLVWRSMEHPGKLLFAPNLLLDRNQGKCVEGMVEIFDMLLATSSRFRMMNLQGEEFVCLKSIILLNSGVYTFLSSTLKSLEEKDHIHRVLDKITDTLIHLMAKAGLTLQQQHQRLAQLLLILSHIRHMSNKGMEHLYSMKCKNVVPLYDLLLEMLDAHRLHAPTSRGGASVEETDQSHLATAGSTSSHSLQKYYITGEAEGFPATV
Description: Binding affinity to untagged human recombinant full length ERalpha expressed in insect cells up to 1 uM by Fluormone ES2 Green displacement based assay.

A further data set has as its target T2, Glucocorticoid receptor (Canis lupus familiaris, UniProt A0A8C0QLS2).
T2 sequence (A0A8C0QLS2 whole entry): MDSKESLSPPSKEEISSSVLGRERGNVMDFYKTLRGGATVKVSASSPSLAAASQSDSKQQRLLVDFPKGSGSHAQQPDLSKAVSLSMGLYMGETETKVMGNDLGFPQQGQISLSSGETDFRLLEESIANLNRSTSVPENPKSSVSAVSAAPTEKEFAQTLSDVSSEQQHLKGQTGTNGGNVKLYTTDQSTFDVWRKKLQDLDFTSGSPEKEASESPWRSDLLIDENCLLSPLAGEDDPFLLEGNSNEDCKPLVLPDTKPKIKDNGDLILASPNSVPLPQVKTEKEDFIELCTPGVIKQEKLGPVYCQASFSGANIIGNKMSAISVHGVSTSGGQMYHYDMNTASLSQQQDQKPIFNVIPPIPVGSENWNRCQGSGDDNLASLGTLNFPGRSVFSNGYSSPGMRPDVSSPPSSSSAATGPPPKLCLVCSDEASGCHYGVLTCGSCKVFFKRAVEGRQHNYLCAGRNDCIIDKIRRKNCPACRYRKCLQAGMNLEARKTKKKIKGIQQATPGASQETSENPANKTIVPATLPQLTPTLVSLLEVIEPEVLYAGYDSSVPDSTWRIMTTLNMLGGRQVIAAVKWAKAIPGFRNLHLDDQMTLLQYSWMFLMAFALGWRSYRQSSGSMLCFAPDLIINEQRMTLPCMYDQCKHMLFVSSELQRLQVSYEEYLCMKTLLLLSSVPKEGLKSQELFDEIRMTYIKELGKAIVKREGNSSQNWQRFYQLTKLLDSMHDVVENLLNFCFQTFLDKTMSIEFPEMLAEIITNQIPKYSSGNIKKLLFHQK
As to the kind of experiment: Antagonist activity at GR in dog PBMC assessed as reduction in dexamethasone-induced GILZ gene expression incubated for 6 hrs by RT-qPCR method. Type of data set: cell-based. On the technique in general: Real-time PCR tracks product formation cycle by cycle.

The target in the next data set is T3, Progesterone receptor (Homo sapiens, UniProt P06401).
T3 sequence (P06401 whole entry): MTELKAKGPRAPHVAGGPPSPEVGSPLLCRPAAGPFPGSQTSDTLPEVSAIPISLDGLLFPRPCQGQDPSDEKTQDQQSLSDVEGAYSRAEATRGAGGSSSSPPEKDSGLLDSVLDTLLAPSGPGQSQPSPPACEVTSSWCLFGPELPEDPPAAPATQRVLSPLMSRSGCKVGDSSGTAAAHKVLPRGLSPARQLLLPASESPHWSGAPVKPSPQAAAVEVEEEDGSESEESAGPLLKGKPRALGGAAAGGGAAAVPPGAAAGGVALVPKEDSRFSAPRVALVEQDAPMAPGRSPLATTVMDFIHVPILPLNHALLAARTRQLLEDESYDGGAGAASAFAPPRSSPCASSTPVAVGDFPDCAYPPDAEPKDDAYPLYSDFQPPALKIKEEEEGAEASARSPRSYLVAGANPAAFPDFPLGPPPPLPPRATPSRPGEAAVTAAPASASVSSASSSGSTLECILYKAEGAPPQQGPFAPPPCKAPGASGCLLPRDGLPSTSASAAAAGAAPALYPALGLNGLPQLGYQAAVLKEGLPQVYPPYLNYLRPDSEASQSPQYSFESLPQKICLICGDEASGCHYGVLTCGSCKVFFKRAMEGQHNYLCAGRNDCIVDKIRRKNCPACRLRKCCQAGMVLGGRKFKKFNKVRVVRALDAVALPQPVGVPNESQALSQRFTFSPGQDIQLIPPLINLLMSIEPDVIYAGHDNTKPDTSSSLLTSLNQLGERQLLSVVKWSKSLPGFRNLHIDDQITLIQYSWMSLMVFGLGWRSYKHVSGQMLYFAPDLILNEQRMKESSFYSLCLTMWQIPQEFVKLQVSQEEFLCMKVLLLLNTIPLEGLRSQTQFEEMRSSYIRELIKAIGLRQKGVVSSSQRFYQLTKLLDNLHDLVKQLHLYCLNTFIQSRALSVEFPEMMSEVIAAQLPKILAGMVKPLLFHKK
As to the kind of experiment: Antagonist activity at human PR expressed in CHO-K1 cells assessed as reduction in progesterone-induced response incubated for 20 hrs by luciferase reporter gene assay. Type of data set: cell-based.

Data set [1] in a line: Half life in mouse at 0.5 mg/kg, iv. The conditions noted are these: in vivo. Format: ADME, organism-based.

pIC50: −log10 of the molar value.

For `CC(C)N(C)c1ccc([C@H]2C[C@@]3(C)[C@@H](CC[C@@]3(O)C#CC(C)(C)C)[C@@H]3CCC4=CC(=O)CC[C@@H]4[C@H]32)cc1`, the Activity result at Estrogen receptor is “Not Active”. Further, the values for the pIC50 on Glucocorticoid receptor and on Progesterone receptor were 7.46 and 7.68, respectively. Moreover, the half-life in data set [1] was 4.83 h.
